# Several values for one entry are separate records, joined by “and”; a condition that tells them apart may be missing. Identical values can stand only once. Like-named read-outs stand apart in the source and are kept apart here. [s] = deoxynucleotide carrying the publication's artificial base s, incorporated via its phosphoramidite; [v] = deoxynucleotide carrying the publication's artificial base v, incorporated via its phosphoramidite
# How the values were obtained:
# [1] = target: T1, T7 RNA polymerase (Escherichia phage T7, UniProt P00573); conditions: natural NTPs 1 mM, sTP 1 mM; for relative yield of full-length (17-mer) transcript: template DNA containing one unnatural base, natural-base template set to 100%; for full-length transcript formation: template containing two unnatural bases
# T1 sequence (P00573 whole entry): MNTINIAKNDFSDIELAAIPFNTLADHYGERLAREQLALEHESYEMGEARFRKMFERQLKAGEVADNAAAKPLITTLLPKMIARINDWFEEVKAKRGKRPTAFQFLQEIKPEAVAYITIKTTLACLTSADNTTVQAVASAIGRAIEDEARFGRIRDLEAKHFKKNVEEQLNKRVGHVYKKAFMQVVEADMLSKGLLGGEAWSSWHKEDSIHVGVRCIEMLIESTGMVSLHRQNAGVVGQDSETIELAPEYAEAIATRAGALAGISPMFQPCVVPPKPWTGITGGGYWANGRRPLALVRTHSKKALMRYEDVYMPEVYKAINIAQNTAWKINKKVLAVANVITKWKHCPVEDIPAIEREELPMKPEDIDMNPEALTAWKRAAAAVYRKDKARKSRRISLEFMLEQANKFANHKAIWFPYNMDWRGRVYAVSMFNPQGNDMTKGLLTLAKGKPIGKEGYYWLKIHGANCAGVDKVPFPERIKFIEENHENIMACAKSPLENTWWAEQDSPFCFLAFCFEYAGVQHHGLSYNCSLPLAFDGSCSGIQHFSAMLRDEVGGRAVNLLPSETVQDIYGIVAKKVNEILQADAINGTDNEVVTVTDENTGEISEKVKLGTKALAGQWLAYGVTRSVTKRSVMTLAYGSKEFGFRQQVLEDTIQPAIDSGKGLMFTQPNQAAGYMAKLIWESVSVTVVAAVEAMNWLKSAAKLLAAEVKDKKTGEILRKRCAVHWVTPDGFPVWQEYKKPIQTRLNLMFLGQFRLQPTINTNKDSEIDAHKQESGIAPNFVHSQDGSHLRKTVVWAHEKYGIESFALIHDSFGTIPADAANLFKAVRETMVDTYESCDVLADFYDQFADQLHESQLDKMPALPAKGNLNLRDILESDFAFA
# Description: Transcription was performed in a 40 mM Tris-HCl (pH 8.0) buffer solution (20 μl) containing 24 mM MgCl2, 2 mM spermidine, 5 mM DTT and 0.01% Triton X-100, in the presence of 1 mM natural NTPs or 1 mM sTP, 2 μCi [γ-^32P]GTP, 2 μM template and 50 units of T7 RNA polymerase (Takara, Kyoto).
# The use of [γ-^32P]GTP allowed determination of yields because the transcripts were labeled only at their 5′-end. After incubation at 37° C. for 3 hours, a dye solution (20 μl ) containing 10 M urea and 0.05% BPB was added to stop the reaction. The mixtures were each heated at 75° C. for 3 hours and the products were analyzed on a 20% polyacrylamide-7 M urea gel.
# These templates were used to effect transcription for 3 hours, and the transcripts whose 5′-end was labeled with [γ-^32P]GTP were analyzed on a gel. […] The transcripts are labeled with [γ-^32P]GTP at their 5′-end. The relative yield of each transcript was determined in comparison with the yield of a transcript from a template composed only of natural bases, which was set to 100%. Each yield was averaged from 3 to 4 data sets.
# [2] = target: T1, T7 RNA polymerase
# Description: In this example, to study the selectivity of s-Pa base pair during transcription, composition analysis was performed on nucleotides in the full-length (17-mer) transcripts obtained by transcription from Pa, z and natural templates. The transcripts were each internally labeled with any of [α-^32P]UTP, [α-^32P]ATP or [α-^32]GTP, and these transcripts were completely digested with RNase T2 into a nucleoside 3′-phosphate form. The resulting labeled nucleotides were analyzed by 2D-TLC (FIG. 3), and the spots were quantified for each nucleoside 3′-monophosphate (Table 1).
# More specifically, transcription was performed in 40 mM Tris-HCl (pH 8.0) buffer (20 μl) containing 24 mM MgCl2, 2 mM spermidine, 5 mM DTT and 0.01% Triton X-100, in the presence of 10 mM GMP, 1 mM natural NTPs (1 mM, N=A, G, C, U), 0, 1 or 3 mM sTP, 2 μCi [γ-^32P]UTP, [γ-^32P]ATP or [γ-^32P]GTP (Amersham), 2 μM template DNA, and 50 units of T7 RNA polymerase (Takara) (Non-patent Documents 14 and 15). After incubation for 3 hours at 37° C., a dye solution was added to stop the transcription.
# This mixture was heated at 75° C. for 3 hours and then electrophoresed on a 15% polyacrylamide-7 M urea gel. The full-length product was eluted from the gel and 0.05 A260 units of E. coli tRNA was then added thereto, followed by ethanol precipitation. The transcript was digested at 37° C. for 2 hours with 0.075 U/μl RNase T2 in 15 mM sodium acetate buffer (pH 4.5). […] The digestion products were analyzed by 2D-TLC using a Merck HPTLC plate (100×100 mm, Merck, Darmstadt, Germany). The developing solvents used for the first and second dimensions were isobutyric acid/NH4OH/H2O (66:1:33 v/v/v) and isopropyl alcohol/HCl/H2O (70:15:15 v/v/v), respectively. The products on the TLC plate were analyzed with a bio-imaging analyzer. Each spot was quantified by averaging from 3 to 9 data sets.
# [3] = Excitation and fluorescence spectra of the fluorescent bases; type: physicochemical; conditions: for fluorescence wavelength, center: excited at the stated excitation wavelength
# [4] = target: T1, T7 RNA polymerase; conditions: 1 mM yTP; template composed only of natural bases (Entry No. 10)
# Description: T7 RNA polymerase-mediated transcription reaction was accomplished in a reaction solution containing 40 mM Tris-HCl buffer (pH 8.0), 8 mM MgCl2, 2 mM spermidine, 5 mM DTT, 0.01% Triton X-100, 2 μCi [α-^32P]ATP or 2 μCi [α-^32P]GTP or 2 μCi [α-^32P]CTP or 2 μCi [α-^32P]UTP, 1 mM NTPs, 0-1 mM sTP, 0-1 mM yTP, 0.5 μM template DNA, and 50 units of T7 RNA polymerase (Takara). The transcript was purified by electrophoresis on a 15% polyacrylamide-7 M urea gel, eluted from the gel and then collected by ethanol precipitation in the presence of tRNA (0.05 OD). This sample was dissolved in 10 μl sterilized water, and the resulting solution (8.5 μl) was provided for complete digestion with RNase T2. To the solution (8.5 μl), RNase T2 (1.5 μl, 0.5 U/μl) was added and reacted at 37° C. for 2 hours. A part of this solution was spotted on a TLC plate (Merck, 10 cm×10 cm) and developed two-dimensionally. The developing solutions used for the first and second dimensions were isobutyric acid:concentrated aqueous ammonia:water=66:1:33 (v/v/v) and 2-propanol:hydrochloric acid:water=65:10:25 (v/v/v), respectively.
# In this technique, upon incorporation of a radioactive substrate, a nucleotide located at the 5′-side of the substrate can be detected on two-dimensional TLC. […]
# [5] = FRET between s or v in 35-mer DNA and FAM-y or FAM-hx-y in 17-mer RNA (DNA/RNA duplexes); type: physicochemical; conditions: for FRET with 17-mer RNA using excessive DNA probe: 10 molar equivalents of DNA against the 17-mer RNA
# Description: (§1) DNA containing an artificial base s or v was synthesized as described, for example, in WO 01/05801 or WO 2005/026187 by using a cyanoethylphosphoroamidite derivative of a nucleotide containing an artificial base s or v in accordance with the DNA chemical synthesis method well known in the art. The sequence of the chemically synthesized 35-mer DNA is as follows: 5′-CAN1N2N3[…]-3′ (SEQ ID NO: 20; DNA in which N1N2N3 is CTs or CTv is referred to as DNA35s1 or DNA35v1, respectively; DNA in which N1N2N3 is Css or Cvv is referred to as DNA35s2a or DNA35v2a, respectively; and DNA in which N1N2N3 is sTs or vTv is referred to as DNA35s2b or DNA35v2b, respectively). The resulting DNA was purified by gel electrophoresis.
# 17-mer RNA incorporating FAM-y or FAM-hx-y at the N′ position (5′-[…]′AGUG-3′; SEQ ID NO: 21) was prepared through T7 transcription using T7 RNA polymerase and a substrate of FAM-y or FAM-hx-y (FAM-yTP or FAM-hx-yTP). […] The reaction mixture was heated at 75° C. for 3 minutes and the 17-mer transcript was purified by gel electrophoresis.
# (§2) Fluorescence spectra were measured in a buffer containing 10 mM sodium phosphate (pH 7.0), 100 mM NaCl and 0.1 mM EDTA. Emission spectra were recorded with an excitation wavelength of 350 nm for s and 360 nm for v, respectively. The emission spectral bandpass was set to 5 nm.
# The 17-mer RNA site-specifically incorporating FAM-y or FAM-hx-y was hybridized with 35-mer DNA site-specifically containing one or two s or v bases (DNA35s1, 35s2a, 35S2b, 35v1, 35v2a or 35v2b) to measure emission spectra for the DNA/RNA duplex at different temperatures (20° C. and 70° C.).
# [6] = Steady-state fluorescence emission of single-stranded DNAs containing s or v; type: physicochemical; conditions: single-stranded 35-mer DNA with two artificial bases
# Description: as §1, §2
molecule,measurement,setting,value
2-formyl-1H-pyrrol-1-yl group [Pa],relative yield of full-length (17-mer) transcript,[1],92%
same,full-length transcript formation,[1],full-length products were obtained
"2-oxo-1,3-dihydroimidazol-1-yl group [reference compound]",relative yield of full-length (17-mer) transcript,[1],35%
same,full-length transcript formation,[1],no full-length transcript was obtained
"Nc1nc(-c2cccs2)c2nc[nH]c2n1 [s, 2-amino-6-(2-thienyl)-9H-purin-9-yl group]",selectivity of s incorporation into RNA opposite Pa in the template DNA,"[2]; template containing one Pa base, sTP 1 mM (Table 1, Entry No. 1)",97%
same,selectivity of s incorporation at the first position,[2]; template containing two Pa bases,95%
same,selectivity of s incorporation at the second position,"[2]; template containing two Pa bases, sTP 1 mM",84-87%
same,selectivity of s incorporation at the second position,"[2]; template containing two Pa bases, sTP 3 mM",89-93%
same,excitation wavelength (maximum),[3],352 nm and 299 nm
same,"fluorescence wavelength, center",[3],434 nm
same,quantum yield of the fluorescence,[3]; pH 7.0,0.41
"Nc1nc(-c2cccs2)c2ncn([C@@H]3O[C@H](COP(=O)(O)OP(=O)(O)OP(=O)(O)O)[C@@H](O)[C@H]3O)c2n1 [sTP, 2-amino-6-(2-thienyl)-9-(1-β-D-ribofuranosyl)purine 5′-triphosphate]",misincorporation of sTP opposite natural bases in the template,"[2]; Table 1, Entry Nos. 4 and 6",no misincorporation
"c1csc(-c2ncnc3[nH]cnc23)c1 [s′, 6-(2-thienyl)-9H-purin-9-yl group]",excitation wavelength (maximum),[3],325 nm
same,"fluorescence wavelength, center",[3],381 nm
"Nc1nc(-c2nccs2)c2nc[nH]c2n1 [v, 2-amino-6-(2-thiazolyl)-9H-purin-9-yl group]",excitation wavelength (maximum),[3],363 nm
same,"fluorescence wavelength, center",[3],461 nm
O=c1[nH]cccc1C1OC(COP(=O)(O)OP(=O)(O)OP(=O)(O)O)C(O)C1O (stereo not shown) [yTP],incorporation of yp opposite natural template bases,[4],a slight amount of yp was incorporated
"DNA35s1: 35-mer DNA (SEQ ID NO: 20) in which N1N2N3 is CTs (DNA CACTNCTCGGGATTCCCTATAGTGAGTCGTATTAT; DNA, [s] at 5, backbone, methylation of C and the base at N not given here)",FRET with 17-mer RNA using excessive DNA probe,[5],completely buried in the background fluorescence
same,FRET in duplex with 17-mer RNA incorporating FAM-y or FAM-hx-y,[5]; 20° C.,FRET occurred
same,FRET in duplex with 17-mer RNA incorporating FAM-y or FAM-hx-y,[5]; duplex denatured at 70° C.,FRET was significantly reduced
"DNA35s2a: 35-mer DNA (SEQ ID NO: 20) in which N1N2N3 is Css (DNA CACNNCTCGGGATTCCCTATAGTGAGTCGTATTAT; DNA, [s] at 4, 5, backbone, methylation of C and the base at N not given here)",FRET with 17-mer RNA using excessive DNA probe,[5],FRET was clearly observed
same,FRET in duplex with 17-mer RNA incorporating FAM-y or FAM-hx-y,[5]; 20° C.,FRET occurred efficiently
same,fluorescence intensity of single-stranded DNA,[6],significantly decreased
"DNA35s2b: 35-mer DNA (SEQ ID NO: 20) in which N1N2N3 is sTs (DNA CANTNCTCGGGATTCCCTATAGTGAGTCGTATTAT; DNA, [s] at 3, 5, backbone, methylation of C and the base at N not given here)",fluorescence intensity of single-stranded DNA,[6],no significant decrease
"DNA35v1: 35-mer DNA (SEQ ID NO: 20) in which N1N2N3 is CTv (DNA CACTNCTCGGGATTCCCTATAGTGAGTCGTATTAT; DNA, [v] at 5, backbone, methylation of C and the base at N not given here)",FRET with 17-mer RNA using excessive DNA probe,[5],completely buried in the background fluorescence
same,FRET in duplex with 17-mer RNA incorporating FAM-y or FAM-hx-y,[5]; 20° C.,FRET occurred
same,FRET in duplex with 17-mer RNA incorporating FAM-y or FAM-hx-y,[5]; duplex denatured at 70° C.,FRET was significantly reduced
"DNA35v2a: 35-mer DNA (SEQ ID NO: 20) in which N1N2N3 is Cvv (DNA CACNNCTCGGGATTCCCTATAGTGAGTCGTATTAT; DNA, [v] at 4, 5, backbone, methylation of C and the base at N not given here)",FRET with 17-mer RNA using excessive DNA probe,[5],FRET was clearly observed
same,FRET in duplex with 17-mer RNA incorporating FAM-y or FAM-hx-y,[5]; 20° C.,FRET occurred efficiently
same,fluorescence intensity of single-stranded DNA,[6],significantly decreased
"DNA35v2b: 35-mer DNA (SEQ ID NO: 20) in which N1N2N3 is vTv (DNA CANTNCTCGGGATTCCCTATAGTGAGTCGTATTAT; DNA, [v] at 3, 5, backbone, methylation of C and the base at N not given here)",fluorescence intensity of single-stranded DNA,[6],no significant decrease

# Source: patent US8212014B2, “Artificial base pairs and uses thereof” (Riken, priority 2005, dated 2012)
